Data: patent US20080221134A1, “8-ALKYNYLXANTHINES AND DERIVATIVES” (priority 2006, published 2008)

Tests used:
Adenosine A2A = Adenosine A2A (Homo sapiens, UniProt P29274); assay: Radioligand binding assay 2, Adenosine A2A; design: expressed in transfected cells; host or cells: HEK-293 cells; settings: at 1 μmol/l; human recombinant HEK-293 cells, [3H]CGS 21680; read-out: A2A AR % inhibition of agonist binding
Procedure: (§1) The assays were performed under the conditions described below. The literature references are also provided for each assay:
The adenosine A2A radioligand binding assay used is further described in Luthin D. R. et al., Mol. Pharmacol., 1995, 47 and is incorporated herein by reference.
(§2) The specific ligand binding to the receptors is defined as the difference between the total binding and the non-specific binding determined in the presence of an excess of unlabelled ligand. The results are expressed as a percent of control specific binding and as percent inhibition of control specific binding obtained in the presence of the test compounds.

Adenosine A3 = biological target: T1, Adenosine A3 (Homo sapiens, UniProt P0DMS8); assay: Radioligand binding assay 2, Adenosine A3; settings: at 1 μmol/l; human recombinant HEK-293 cells, [125I]AB-MECA; read-out: A3 AR % inhibition of agonist binding
T1 construct: expressed in transfected cells; host or cells: HEK-293 cells
T1 sequence (P0DMS8 1-318): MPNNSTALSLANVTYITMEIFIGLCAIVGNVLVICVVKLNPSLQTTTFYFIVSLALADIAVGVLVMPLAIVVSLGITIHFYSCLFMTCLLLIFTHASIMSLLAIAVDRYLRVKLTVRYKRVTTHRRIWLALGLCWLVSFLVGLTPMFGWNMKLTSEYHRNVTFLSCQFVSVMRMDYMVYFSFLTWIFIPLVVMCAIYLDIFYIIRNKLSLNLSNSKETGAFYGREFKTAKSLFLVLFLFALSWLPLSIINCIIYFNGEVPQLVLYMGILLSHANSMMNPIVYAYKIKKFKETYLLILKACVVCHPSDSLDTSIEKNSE
Procedure: as §1
The adenosine A3 radioligand binding assay used is further described in Salvatore C. A. et al., Proc. Natl. Acad. Sci. USA, 1993, 90, 10365 and is incorporated herein by reference.
as §2

Adenosine A1 = biological target: T2, Adenosine A1 (Homo sapiens, UniProt P30542); assay: Radioligand binding assay 2, Adenosine A1; design: expressed in transfected cells; host or cells: CHO cells; settings: at 1 μmol/l; human recombinant CHO cells, [3H]CCPA; read-out: A1 AR % inhibition of agonist binding
T2 sequence (P30542 1-326): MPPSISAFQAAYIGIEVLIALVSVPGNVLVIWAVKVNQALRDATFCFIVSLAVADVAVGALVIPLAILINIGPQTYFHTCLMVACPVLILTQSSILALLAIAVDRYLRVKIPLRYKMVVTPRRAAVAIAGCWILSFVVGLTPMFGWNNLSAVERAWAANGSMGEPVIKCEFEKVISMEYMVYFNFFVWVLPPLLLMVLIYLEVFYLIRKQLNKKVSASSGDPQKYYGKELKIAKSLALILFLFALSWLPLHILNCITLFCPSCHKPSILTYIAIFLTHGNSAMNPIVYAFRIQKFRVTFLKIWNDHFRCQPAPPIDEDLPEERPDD
Procedure: as §1
The adenosine A1 radioligand binding assay used is further described in Rivkees S. A. et al., J. Biol. Chem., 1995, 270, 20485 and is incorporated herein by reference.
as §2

Adenosine A2B = biological target: T3, Adenosine A2B (Homo sapiens, UniProt P29275); assay: Radioligand binding assay 2, Adenosine A2B; settings: at 1 μmol/l; human recombinant HEK-293 cells, [3H]MRS 1754; read-out: A2B AR % inhibition of agonist binding
T3 construct: expressed in transfected cells; host or cells: HEK-293 cells
T3 sequence (P29275 1-332): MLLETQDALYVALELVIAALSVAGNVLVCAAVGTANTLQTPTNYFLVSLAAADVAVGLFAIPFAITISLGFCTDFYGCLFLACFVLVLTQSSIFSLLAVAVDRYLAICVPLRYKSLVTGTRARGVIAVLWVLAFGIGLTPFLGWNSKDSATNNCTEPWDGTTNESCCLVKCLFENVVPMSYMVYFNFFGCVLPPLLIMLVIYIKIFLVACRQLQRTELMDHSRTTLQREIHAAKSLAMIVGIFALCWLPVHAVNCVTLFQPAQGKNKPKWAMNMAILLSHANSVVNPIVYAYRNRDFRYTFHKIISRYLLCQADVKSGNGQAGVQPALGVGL
Procedure: as §1
The adenosine A2B radioligand binding assay used is further described in Stehle J. H. et al., Mol. Endocrinol., 1992, 6, 384 and is incorporated herein by reference.
as §2

MAO-B = biological target: T4, MAO-B (Homo sapiens, UniProt P27338); assay: MAO-B inhibition; assay type: biochemical
T4 sequence (P27338 1-520): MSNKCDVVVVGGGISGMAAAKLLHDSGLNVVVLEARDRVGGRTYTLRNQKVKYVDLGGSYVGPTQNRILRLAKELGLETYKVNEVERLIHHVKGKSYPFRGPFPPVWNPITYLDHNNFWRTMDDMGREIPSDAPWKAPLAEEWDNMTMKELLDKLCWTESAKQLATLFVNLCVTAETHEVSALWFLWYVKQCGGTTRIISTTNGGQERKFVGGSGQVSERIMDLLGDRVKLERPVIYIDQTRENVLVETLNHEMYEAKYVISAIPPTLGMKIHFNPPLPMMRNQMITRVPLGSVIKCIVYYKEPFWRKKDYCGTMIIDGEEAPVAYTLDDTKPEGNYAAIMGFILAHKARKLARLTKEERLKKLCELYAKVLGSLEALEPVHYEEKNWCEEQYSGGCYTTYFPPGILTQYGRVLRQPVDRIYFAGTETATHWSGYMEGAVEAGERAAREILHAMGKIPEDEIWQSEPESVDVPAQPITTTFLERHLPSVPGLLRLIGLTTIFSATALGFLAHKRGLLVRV

Sequence of Adenosine A2A (P29274 whole entry): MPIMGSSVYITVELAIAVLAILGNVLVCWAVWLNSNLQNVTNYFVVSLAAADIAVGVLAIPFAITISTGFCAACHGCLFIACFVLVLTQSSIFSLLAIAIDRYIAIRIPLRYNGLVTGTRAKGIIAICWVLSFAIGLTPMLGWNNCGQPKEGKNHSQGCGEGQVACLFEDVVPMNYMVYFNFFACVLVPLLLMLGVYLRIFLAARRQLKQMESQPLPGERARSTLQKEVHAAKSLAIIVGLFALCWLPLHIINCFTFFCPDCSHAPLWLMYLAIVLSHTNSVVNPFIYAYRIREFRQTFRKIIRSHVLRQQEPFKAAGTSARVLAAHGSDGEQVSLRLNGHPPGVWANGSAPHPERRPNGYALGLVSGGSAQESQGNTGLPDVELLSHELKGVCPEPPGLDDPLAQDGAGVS

SMILES	inhibition at 1 µM (Adenosine A2A) [%]	inhibition at 1 µM (Adenosine A3) [%]	inhibition at 1 µM (Adenosine A1) [%]	inhibition at 1 µM (Adenosine A2B) [%]	Mao-B-inhibition values (MAO-B)	melting point [°C]
C#CCn1c(=O)c2c(nc(C#Cc3cccc(OC)c3)n2CC#C)n(C)c1=O [drawing 610]	86	37	24	22		
C#CCn1c(=O)c2c(nc(C#Cc3ccc(OC)c(OC)c3)n2C)n(CCCO)c1=O [drawing 612]	97	36	34	14		
C#CCn1c(=O)c2c(nc(C#Cc3cccc(Br)c3)n2C)n(C)c1=O [8-(3-bromophenylethynyl)-3,7-dimethyl-1-prop-2-ynyl-3,7-dihydropurine-2,6-dione]					submikromolar range	
C#CCn1c(=O)c2c(nc(C#Cc3ccc(OC)c(OC)c3)n2C)n(CC)c1=O [drawing 608]	95	38	4	14		
C#CCn1c(=O)c2c(nc(C#Cc3cccc(OC(C)=O)c3)n2C)n(C)c1=O [8-(3-Acetoxyphenylethynyl)-3,7-dimethyl-1-prop-2-ynyl-3,7-dihydropurine-2,6-dione]						238
C#CCn1c(=O)c2c(nc(C#Cc3cccc(Cl)c3)n2C)n(C)c1=O [8-(3-chlorophenylethynyl)-3,7-dimethyl-1-prop-2-ynyl-3,7-dihydropurine-2,6-dione]					submikromolar range	
C#CCn1c(=O)c2c(nc(C#Cc3cccc(OC)c3)n2C)n(C)c1=O [drawing 607]	81	24	5	19		
C#CCn1c(=O)c2c(nc(C#Cc3cccc(C)c3)n2C)n(CCCO)c1=O [drawing 613]	92	54	43	17		
C#CCn1c(=O)c2c(nc(C#Cc3cccc(OC)c3)n2C)n(CCCO)c1=O [drawing 611]	93	37	41	6		
C#CCn1c(=O)c2c(nc(C#Cc3ccc(OC)c(OC)c3)n2C)n(C)c1=O [drawing 609]	85	16	10	19		
C#CCn1c(=O)c2c(nc(C#Cc3cccc(O)c3)n2C)n(C)c1=O [8-(3-Hydroxyphenylethynyl)-3,7-dimethyl-1-prop-2-ynyl-3,7-dihydropurine-2,6-dione]						271
